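Method: 48-hour compound exposure of cells in 96-well plates, five concentrations, linear interpolation of endpoints. GI50 marks 50% less growth.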 Activity calls are given as the source filed them. Cut-off read from the data, not from the text of the source: active = GI50 up to about 1.1 µM and inactive = higher.

Eight molecules from ChEMBL document CHEMBL1201862, “PubChem BioAssay data set” (2004) can be followed below.

What all share (test): NCI-60 cell line screen, 48 h
Test [1] deals with MCF7.
Test [2] concerns MDA-MB-435.
In test [3] the test system is A498.
Test [4] has as its system U-251.
The subject of test [5] is HOP-62.
Test [6] concerns BT-549.
The test system of test [7] is PC-3.
For test [8], the system named is OVCAR-8.
For test [9], the system named is SN12C.
For test [10], the system named is NCI/ADR-RES.
The test system of test [11] is SF-295.
The test system of test [12] is Hs-578T.
In test [13] the test system is HL-60.
Test [14] deals with A549.
Test [15] has as its system KM12.
The subject of test [16] is CAKI-1.
Test [17] has as its system OVCAR-4.
Test [18] has as its system UO-31.
In test [19] the test system is EKVX.

For `CCOC(=O)n1c(=O)nc2c3c(ncn21)Oc1c(c(-c2ccccc2)nn1-c1ccccc1)C3c1ccc(Cl)cc1` (stereo not drawn), the GI50 in test [1] was 1.56 µM (inactive); in test [2], 1.67 µM (inactive); in test [3], 1.79 µM (inactive); in test [4] it was 1.69 µM (inactive); in test [5], 1.77 µM (inactive); in test [6] it was 1.57 µM (inactive). Further, the GI50 in test [7] is 1.73 µM (inactive); in test [8], 1.69 µM (inactive); in test [9], 1.82 µM (inactive); in test [10] it was 1.73 µM (inactive); in test [11], 1.86 µM (inactive); in test [12] it was 1.66 µM (inactive). For the same molecule, the GI50 in test [13] is 1.26 µM (inactive); in [14], 1.65 µM (inactive); in [15], 1.56 µM (inactive); in test [16], 1.61 µM (inactive); in [17], 1.15 µM (inactive); in test [18] it was 1.49 µM (inactive).

Regarding `CCOC(=O)CCCNC(=O)CCCCC(=O)N(C)C`, the GI50 in [1], in [2], in [3], in test [4], in test [5] and in test [6] was > 100 µM (inactive) in each case. Besides, the GI50 in test [7], in test [8], in test [9], in test [10], in test [11] and in test [12] was > 100 µM (inactive) each time. In addition, the GI50 in test [13], in [14], in test [15], in test [16], in [19] and in test [18] was > 100 µM (inactive) each time.

Take `Nc1nncc2[nH]nnc12`: the GI50 in test [1], in test [2], in test [3], in test [4], in test [5] and in test [6] was > 100 µM (inactive) in each case. The GI50 in [7], in test [8], in [9], in test [10], in test [11] and in test [12] was > 100 µM (inactive) throughout. The GI50 in test [13] is 12.8 µM (inactive); in test [14] it was > 100 µM (inactive); in test [15], > 100 µM (inactive); in [16], > 100 µM (inactive); in test [19], > 100 µM (inactive); in [18], > 100 µM (inactive).

As for `CN(CCO)CC(=O)CC(O)(C(F)(F)F)C(F)(F)F`, the GI50 in test [1] is 46.2 µM (inactive); in [2] it was 36 µM (inactive); in [3] it was 44.6 µM (inactive); in [4] it was 28.6 µM (inactive); in test [6], 43.7 µM (inactive); in test [7], 26.2 µM (inactive). In addition, the GI50 in [8] was 41.3 µM (inactive); in test [10], 41 µM (inactive); in test [11] it was 30 µM (inactive); in test [12] it was 21.3 µM (inactive); in test [13], 26.4 µM (inactive); in [14] it was 30.4 µM (inactive). Besides, the GI50 in test [15] is 39.8 µM (inactive); in test [16] it was 30.1 µM (inactive); in test [19] it was 31.2 µM (inactive); in test [17], 50 µM (inactive); in test [18] it was 39.1 µM (inactive).

For the molecule `COC(=O)C1=C(C(=O)OC)SC(=C2SC3=C(SC(=C4SCCS4)S3)S2)S1`, the GI50 was > 100 µM (inactive) in test [1]; > 100 µM (inactive) in test [2]; > 100 µM (inactive) in test [3]; 93.1 µM (inactive) in test [4]; > 100 µM (inactive) in test [5]; > 100 µM (inactive) in test [6]. Further, the GI50 was > 100 µM (inactive) in test [7]; > 100 µM (inactive) in test [8]; > 100 µM (inactive) in [9]; > 100 µM (inactive) in test [10]; > 100 µM (inactive) in test [11]; 86.5 µM (inactive) in test [12]. Besides, the GI50 in test [13], in test [14], in test [15], in test [16], in [19] and in test [18] was > 100 µM (inactive) each time.

Regarding `Cn1nc2ccc(Nc3cc(=O)[nH]c4ccc5nn(C)nc5c34)cc2n1`, the GI50 in test [1], in test [2], in test [3], in [4], in test [5] and in [6] was > 100 µM (inactive) each time. The GI50 in test [7], in test [8], in [9], in test [10], in test [11] and in test [12] was > 100 µM (inactive) each time. In addition, the GI50 in test [14], in [15], in test [16], in test [19], in test [17] and in [18] was > 100 µM (inactive) each time.

Turning to `CCOC1CN(C)/C(=N\c2cccc3ccccc23)S1` (stereo not drawn), the GI50 in [1], in test [2], in [3], in test [4], in test [5] and in test [6] was > 10 µM (inactive) in each case. Moreover, the GI50 in test [7], in [8], in [9], in [10], in test [11] and in [12] was > 10 µM (inactive) throughout. Also, the GI50 in test [14], in test [15], in test [16], in [19], in test [17] and in test [18] was > 10 µM (inactive) each time.

Take `Nc1ccc2c(c1)Nc1c3ccccc3nc3cccc-2c13`: the GI50 in test [1] was 0.794 µM (active); in test [2], 1.81 µM (inactive); in [3], 1.79 µM (inactive); in test [4], 1.53 µM (inactive); in test [5], 1.3 µM (inactive); in test [6] it was 3.6 µM (inactive). Besides, the GI50 in test [7] is 1.54 µM (inactive); in test [9], 1.29 µM (inactive); in test [10] it was 1.66 µM (inactive); in test [11] it was 1.29 µM (inactive); in [12], 2.03 µM (inactive); in test [13], 3.66 µM (inactive). The GI50 in test [14] is 1.36 µM (inactive); in [15], 1.32 µM (inactive); in test [16] it was 1.54 µM (inactive); in test [19], 1.69 µM (inactive); in [17], 1.72 µM (inactive); in test [18] it was 1.72 µM (inactive).
